Experimental data from patent publication US11518763B2 (SCOHIA PHARMA, INC., priority 2018, dated 2022).

Target: T1, binding between NRF2 and KEAP1 (biotinylated human KEAP1 protein (Kelch domain), TAMRA-labeled NRF2 peptide) (Homo sapiens, UniProt Q14145)
T1 construct: biotinylated human KEAP1 protein (Kelch domain); biotin (biotinylated)
Test: Measurement of activity of inhibiting NRF2 binding (NRF2-KEAP1 TR-FRET)
Details: inhibition rate relative to control at 100 nM test compound, TR-FRET, 60 min at room temperature; for inhibition at 0.1 µM: read-out: NRF2 binding inhibitory activity (at 100 nM)
Procedure: Test Example 1: Measurement of Activity of Inhibiting NRF2 Binding
The inhibitory activity of test compounds against the binding between NRF2 and KEAP1 was measured by Time Resolved Fluorescence Resonance Energy Transfer (TR-FRET) method. Into a 384 well plate, 2 μL of a compound, 2 μL of 2 nM solution of biotinylated human KEAP1 protein (Kelch domain), 2 μL of 14 nM solution of TAMRA-labeled NRF2 peptide (TAMRA-Abu(4)-VWYTDIRMRDWM-OH), and 2 μL of 2 nM solution of Tb-labeled streptavidin, all solutions diluted with assay buffer (25 mM HEPES, pH7.5, 150 mM NaCl, 0.01% Tween-20), were added. For some wells, the KEAP1 protein was not added to define control wells. The plate was incubated at room temperature for 60 minutes, and time-resolved fluorescence was measured with a plate reader Envision (manufactured by PerkinElmer). The inhibitory activity for each compound at a compound concentration of 100 nM were calculated as a relative activity value by setting the fluorescence intensity of control wells to which the KEAP1 protein was not added as 100% inhibition, and the fluorescence intensity of wells to which no compound was added as 0%.
The measurement results according to the method described above (inhibition rate of signal value relative to control at 100 nM of test compound) are shown in Table 3.

T1 sequence (Q14145 321-609 limits assumed): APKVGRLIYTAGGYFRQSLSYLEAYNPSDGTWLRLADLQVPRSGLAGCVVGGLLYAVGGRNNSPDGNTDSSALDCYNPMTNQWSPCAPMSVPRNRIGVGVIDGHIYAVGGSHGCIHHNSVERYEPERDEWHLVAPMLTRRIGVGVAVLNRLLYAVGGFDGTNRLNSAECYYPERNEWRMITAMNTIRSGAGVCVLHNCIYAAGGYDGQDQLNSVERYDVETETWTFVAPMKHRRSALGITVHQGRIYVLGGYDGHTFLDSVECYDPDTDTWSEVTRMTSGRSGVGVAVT

inhibition at 0.1 µM	Structure (SMILES)	further results
79%	Cc1ccc(NC(=O)CC2c3ccc4c(c3)CN(CC4)C(=O)c3ccc(cc3)CCCCCn3nnc4c(C)c2ccc43)cn1 (stereo not drawn) [Example 38, 2-[32-Methyl-20-oxo-8,9,10,21-tetraazahexacyclo[19.5.3.2^16,19.1^3,7.0^6,10.0^24,28]dotriaconta-1(26),3(32),4,6,8,16,18,24,27,30-decaen-2-yl]-N-(6-methylpyridin-3-yl)acetamide]	
100%	Cc1c2ccc3c1nnn3CCCOCc1ccc(c(Cl)c1)C(=O)N1CCc3ccc(cc3C1)C2CC(=O)O (racemic) [Example 24, [18-Chloro-32-methyl-20-oxo-14-oxa-8,9,10,21-tetraazahexacyclo[19.5.3.2^16,19.1^3,7.0^6,10.0^24,28]dotriaconta-1(26),3(32),4,6,8,16,18,24,27,30-decaen-2-yl]acetic acid]	
100%	Cc1c2ccc3c1nnn3CCCOCc1ccc(c(C3CC3)c1)C(=O)N1CCc3ccc(cc3C1)C2CC(=O)O (racemic) [Example 19, [18-Cyclopropyl-32-methyl-20-oxo-14-oxa-8,9,10,21-tetraazahexacyclo[19.5.3.2^16,19.1^3,8.0^6,10.0^24,28]dotriaconta-1(26),3(32),4,6,8,16,18,24,27,30-decaen-2-yl]acetic acid]	
6%	CCOC(=O)CC1c2ccc3c(c2)CN(CC3)C(=O)c2ccc(cc2)COCCCn2nnc3c(C)c1ccc32 (racemic) [Example 27, Ethyl [32-methyl-20-oxo-14-oxa-8,9,10,21-tetraazahexacyclo[19.5.3.2^16,19.1^3,7.0^6,10.0^24,28]dotriaconta-1(26),3(32),4,6,8,16,18,24,27,30-decaen-2-yl]acetate]	
82%	Cc1c2ccc3c1nnn3CCCOCc1ccc(cc1)C(=O)N1CCc3ccc(cc3C1)C2CC(=O)OC(C)OC(=O)OC1CCCCC1 (stereo not drawn) [Example 40, 1-{[(Cyclohexyloxy)carbonyl]oxy}ethyl[32-methyl-20-oxo-14-oxa-8,9,10,21-tetraazahexacyclo[19.5.3.2^16,19.1^3,7.0^6,10.0^24,28]dotriaconta-1(26),3(32),4,6,8,16,18,24,27,30-decaen-2-yl]acetate]	
79%	Cc1c2ccc3c1nnn3CC/C=C\CCc1ccc(cc1)C(=O)N1CCc3ccc(cc3C1)C2CC(=O)O (racemic) [Example 14, [(13Z)-33-Methyl-21-oxo-8,9,10,22-tetraazahexacyclo[20.5.3.2^17,20.1^3,7.0^6,10.0^25,29]tritriaconta-1(27),3(33),4,6,8,13,17,19,25,28,31-undecaen-2-yl]acetic acid]	
15%	CCOC(=O)CC1c2ccc3c(c2)CN(CC3)C(=O)c2ccc(cc2)COCCCn2nnc3c(C)c1ccc32 (stereo not drawn) [Example 36, Ethyl [32-methyl-20-oxo-14-oxa-8,9,10,21-tetraazahexacyclo[19.5.3.2^16,19.1^3,7.0^6,10.0^24,28]dotriaconta-1(26),3(32),4,6,8,16,18,24,27,30-decaen-2-yl]acetate]	
100%	Cc1c2ccc3c1nnn3CCCOCc1ccc(cc1)C(=O)N1CCc3ccc(cc3C1)C2C(C)(C)C(=O)O (racemic) [Example 28, 2-Methyl-2-[32-methyl-20-oxo-14-oxa-8,9,10,21-tetraazahexacyclo[19.5.3.2^16,19.1^3,7.0^6,10.0^24,28]dotriaconta-(26),3(32),4,6,8,16,18,24,27,30-decaen-2-yl]propanoic acid]	

Second part, the molecule before the results:

Structure (SMILES)	inhibition at 0.1 µM	further results
Cc1c2ccc3c1nnn3CCCCCc1ccc(cc1)C(=O)N1CCc3ccc(cc3C1)C2CC(=O)O (stereo not drawn) [Example 12, [32-Methyl-20-oxo-8,9,10,21-tetraazahexacyclo[19.5.3.2^16,19.0^3,7.0^6,10.0^24,28]dotriaconta-1(26),3(32),4,6,8,16,18,24,27,30-decaen-2-yl]acetic acid]		NRF2 binding inhibitory activity (at 100 nM): 100%
Cc1c2ccc3c1nnn3CCCCCc1ccc(cc1)C(=O)N1CCc3ccc(cc3C1)C2CC(=O)Nc1cccnc1 (stereo not drawn) [Example 39]	97%	
Cc1c2ccc3c1nnn3CCCOCc1ccc(cc1)C(=O)N1CCc3ccc(cc3C1)C2CC(=O)O (stereo not drawn) [Example 26, [32-Methyl-20-oxo-14-oxa-8,9,10,21-tetraazahexacyclo[19.5.3.2^16,19.1^3,7.0^6,10.0^24,28]dotriaconta-1(26),3(32),4,6,8,16,18,24,27,30-decaen-2-yl]acetic acid]		NRF2 binding inhibitory activity (at 100 nM) (0.1 µM): 99%
Cc1c2ccc3c1nnn3CCCCOc1ccc(c(F)c1)C(=O)N1CCc3ccc(cc3C1)C2CC(=O)O (racemic) [Example 31, [18-Fluoro-32-methyl-20-oxo-15-oxa-8,9,10,21-tetraazahexacyclo[19.5.3.2^16,19.1^3,7.0^6,10.0^24,28]dotriaconta-1(26),3(32),4,6,8,16,18,24,27,30-decaen-2-yl]acetic acid]	100%	
Cc1c2ccc3c1nnn3CCCOCc1ccc(cc1)C(=O)N1CCc3ccc(cc3C1)C2C(C)(C)C(=O)O (stereo not drawn) [Example 56, 2-methyl-2-[32-methyl-20-oxo-14-oxa-8,9,10,21-tetrazahexacyclo[19.5.3.2^16,19.1^3,7.0^6,10.0^24,28]dotriaconta-1(27),3(32),4,6,8,16,18,24(28),25,30-decaen-2-yl]propanoic acid]		NRF2 binding inhibitory activity (at 100 nM) (0.1 µM): 99%
Cc1c2ccc3c1nnn3CCCCCc1cc(Cl)c(c(Cl)c1)C(=O)N1CCc3ccc(cc3C1)C2CC(=O)O (racemic) [Example 64, [2-[18,30-dichloro-32-methyl-20-oxo-8,9,10,21-tetrazahexacyclo[19.5.3.2^16,19.1^3,7.0^6,10.0^24,28]dotriaconta-1(27),3(32),4,6,8,16(31),17,19(30),24(28),25-decaen-2-yl]acetyl]oxysodium]	100%	
Cc1c2ccc3c1nnn3CCCCCc1ccc(cc1)C(=O)N1CCc3ccc(cc3C1)C2C(C)(C)C(=O)O (stereo not drawn) [Example 63, 2-methyl-2-[32-methyl-20-oxo-8,9,10,21-tetrazahexacyclo [19.5.3.2^16,19.1^3,7.0^6,10.0^24,28]dotriaconta-1(27),3(32),4,6,8,16(31),17,19(30),24(28),25-decaen-2-yl]propanoic acid]		NRF2 binding inhibitory activity (at 100 nM) (0.1 µM): 46%
Cc1c2ccc3c1nnn3CCCOCc1cc(Cl)c(c(Cl)c1)C(=O)N1CCc3ccc(cc3C1)C2C(C)(C)C(=O)O (stereo not drawn) [Example 61, 2-[18,30-dichloro-32-methyl-20-oxo-14-oxa-8,9,10,21-tetrazahexacyclo[19.5.3.2^16,19.1^3,7.0^6,10.0^24,28]dotriaconta-1(27),3(32),4,6,8,16,18,24(28),25,30-decaen-2-yl]-2-methylpropanoic acid]		NRF2 binding inhibitory activity (at 100 nM) (0.1 µM): 99%
Cc1cc2cc(C)c1C(=O)N1CCc3ccc(cc3C1)C(CC(=O)O)c1ccc3c(nnn3CCCOC2)c1C (stereo not drawn) [Example 67, [18,30,32-trimethyl-20-oxo-14-oxa-8,9,10,21-tetrazahexacyclo[19.5.3.2^16,19.1^3,7.0^6,10.0^24,28]dotriaconta-1(27),3(32),4,6,8,16,18,24(28),25,30-decaen-2-yl]acetic acid]	99%	
Cc1c2ccc3c1nnn3CCCCCc1cc(Cl)c(c(Cl)c1)C(=O)N1CCc3ccc(cc3C1)C2C(C)(C)C(=O)O (racemic) [Example 57, 2-[18,30-dichloro-32-methyl-20-oxo-8,9,10,21-tetrazahexacyclo[19.5.3.2^16,19.1^3,7.0^6,10.0^24,28]dotriaconta-1(26),3(32),4,6,8,16,18,24,27,30-decaen-2-yl]-2-methylpropanoic acid]	100%	
